These results are taken from US7186553B1, “Human derived immortalized liver cell line” (Takeda Pharmaceutical Company Limited, priority 1998, dated 2007).

For one data set, the system named is CYP1A2. Description: Induction of expression of the CYP1A2 gene in OUMS-29 cells (RT-PCR). As to conditions: 1 day after addition, 3-MC 0 to 10000 nM, BP 0 to 50000 nM, corrected to beta-actin mRNA. The text has this: (§1) The expression of cytochrome P450 in the OUMS-29 culture can be analyzed by assessing the level of mRNA content by the commonly known RT-PCR method using DNA primers specific to different types of cytochrome P450. These primers can be prepared from the sequences of the respective types of cytochrome P450 available from the Gene Bank database. The accession numbers at the Gene Bank are K03191 for CYP1A1, M55053 for CYP1A2, J02625 for CYP2E1, J04449 for CYP3A4, J04813 for CYP3A5, and D00408 for CYP3A7. The individual primers used were
(§2) The OUMS-29 culture was cultured for 5 to 7 days; the cells becoming confluent were harvested, from which RNA was extracted using the RNAeasy kit (Quiagen). This RNA, along with the previously determined primers specific to the respective types of cytochrome P450, was subjected to reverse transcription from mRNA and PCR using an one-step PCR kit (Takara Shuzo), after which it was separated using agarose gel and visualized with ultraviolet rays in the presence of ethidium bromide.
(§3) The cultured cells were separated, from which RNA was extracted using the method described above and subjected to RT-PCR.
(§4) Regarding annealing conditions for the RT-PCR method, the annealing temperatures were 55° C. for CYP1A1, 65° C. for CYP1A2, and 55° C. for CYP3A, the cycle numbers being 28 to 36 cycles.
The cycle number for beta-actin, serving as a control, was 15 cycles. […]

In another data set the test system is CYP1A1. Description: Induction of expression of the CYP1A1 gene in OUMS-29 cells (RT-PCR). The conditions noted are these: 1 day after addition, 3-MC 0 to 10000 nM, BP 0 to 50000 nM, PB 0 to 25 mM, corrected to beta-actin mRNA.
Text: as §1, §2, §3, §4
The cycle number for beta-actin, serving as a control, was 15 cycles.
In this operation, an actin competitive RT-PCR kit (Takara Shuzo) was used to correct the total mRNA content in each sample with reference to the mRNA content of beta-actin, which is expressed to the same extent in all tissues.

Data set [1] addresses T1, NADPH cytochrome P450 reductase (Homo sapiens, UniProt P16435).
T1 construct: disrupted using an ultrasound generator; this suspension was used as the enzyme source; endogenous in cells; host or cells: OUMS-29 (SV40 T antigen-immortalized human fetal hepatocytes), sonicated cell suspension
T1 sequence (P16435 1-677): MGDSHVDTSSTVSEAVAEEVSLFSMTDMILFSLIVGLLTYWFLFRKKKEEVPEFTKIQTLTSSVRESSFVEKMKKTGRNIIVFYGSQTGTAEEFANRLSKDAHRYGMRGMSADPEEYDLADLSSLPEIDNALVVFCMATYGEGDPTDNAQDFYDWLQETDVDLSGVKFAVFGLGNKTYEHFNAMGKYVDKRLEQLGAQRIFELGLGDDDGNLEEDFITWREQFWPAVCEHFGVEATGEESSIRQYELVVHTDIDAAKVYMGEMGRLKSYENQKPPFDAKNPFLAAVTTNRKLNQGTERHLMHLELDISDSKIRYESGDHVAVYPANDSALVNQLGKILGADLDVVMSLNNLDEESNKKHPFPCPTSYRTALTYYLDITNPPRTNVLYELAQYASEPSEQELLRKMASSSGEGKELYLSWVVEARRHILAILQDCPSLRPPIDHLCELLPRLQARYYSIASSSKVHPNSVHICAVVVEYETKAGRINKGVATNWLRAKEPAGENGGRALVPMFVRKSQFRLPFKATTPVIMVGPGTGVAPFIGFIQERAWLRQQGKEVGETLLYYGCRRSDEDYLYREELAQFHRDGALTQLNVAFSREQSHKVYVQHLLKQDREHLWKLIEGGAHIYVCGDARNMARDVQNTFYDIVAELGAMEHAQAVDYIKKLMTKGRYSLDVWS
Description: Cytochrome P450 reductase activity of enzyme source of OUMS-29 origin (cytochrome C reduction). As to conditions: disrupted OUMS-29 cells, with NADPH; 1 unit = reducing 1 nanomol of cytochrome C per milligram of protein per minute. It is filed as in vitro ADME. Here is the method: Specifically, cytochrome P450 reductase activity was determined on the basis of cytochrome C reduction in the presence of NADPH (reduced nicotinamide adenine dinucleotide phosphate) and an enzyme source of OUMS-29 origin with cytochrome C as the substrate.

With `c1ccc2c(c1)c1cccc3ccc4cccc2c4c31` [benzpyrene], the “expression of CYP1A2 (mRNA, RT-PCR)” value in the data set on CYP1A2 is “enhanced”. Besides, the “expression of CYP1A1 (mRNA, RT-PCR)” value with CYP1A1 is on record as “enhanced”.
As for cytochrome C, in data set [1], the “cytochrome C reduction (cytochrome P450 reductase activity)” value came out at 8 units.
`Cc1ccc2cc3c(ccc4ccccc43)c3c2c1CC3` [3-methylcholanthrene]: the “expression of CYP1A2 (mRNA, RT-PCR)” value in the data set on CYP1A2 is “enhanced”. In the data set with CYP1A1, the “expression of CYP1A1 (mRNA, RT-PCR)” value was “enhanced”.
On to `CCC1(c2ccccc2)C(=O)NC(=O)NC1=O` [phenobarbitone], for which the “expression of CYP1A1 (mRNA, RT-PCR)” value in the data set on CYP1A1 was “enhanced”.
